Values of other authors, collected in patent US20150108064A1, “Production Of Channel Type Cyclodextrin Crystals” (Amphidex A/S, priority 2012, published 2015).

Columns and labels:
[1] = maximum safe concentration in the air, worker exposed daily

SMILES | TLV [1] [ppm] | Solubility in H2O [g/100 g]
CCCO [1-propanol] | 200 | 
CC(C)=O [Acetone] | 500 | 
ClC(Cl)Cl [Chloroform] | 10 | 
C1CCCCC1 [Cyclohexane] | 300 | 0.005
CCO [Ethanol] | 1000 | 
CCOC(C)=O [Ethyl acetate] | 400 | 8.700
CCCCCCC [Heptane] | 400 | 
CCCCCC [Hexane] | 50 | 0.001
CCCCC [Pentane] |  | 0.004
C1CCOC1 [THF, Tetrahydrofuran] | 200 | 
